Experiments:
[1] = tested on: SUM159 cells transfected with VAV2 or WAVE2; assay: wound healing migration of VAV- or WAVE-overexpressing SUM159 cells; format: cell-based, human; conditions: 100 μM, PDGF, 8 hr
Method: SUM159 cells were transfected with VAV2 or WAVE2. Scratch wound was generated in cell monolayer, followed by treatment with PIT-1 (100 μM) in the presence of PDGF (100 ng/ml) stimulation for 8 hr. The inhibitory effect of PITs on VAV- or WAVE-induced cell migration was calculated according to the width of wound. The width of wounded cell monolayers was measured in five random fields.

Rac1 = Rac1 activation pull-down (GST-Pak1-PBD) in SUM159 cells; format: cell-based, human; conditions: 2 hr, PDGF 100 ng/ml
Method: Rho/Rac family, especially Rac1, plays a critical role in actin polymerization, membrane ruffling/lamellipodia formation, and cell motility (Ridley A J et al. (1992) Cell 70:401-410) downstream of the GEFs, e.g., VAV family, and upstream of the WAVE family. The effect of PITs on Rac1 activation was therefore analyzed. SUM159 cells were seeded on 10 cm^2 plates and serum starved overnight, treated with different PIT compounds at a variety of concentrations for 2 hr, and then stimulated with 100 ng/ml PDGF for […]. Next, cells were rinsed once with PBS, and 1 ml lysis buffer (25 mM Tris-HCl, pH 7.5, 150 mM NaCl, 5 mM MgCl2, 1% NP-40, 1 mM DTT, 5% glycerol, 1 μg/ml aprotinin, 1 μg/ml leupeptin and 1 mM PMSF) was added per plate. The cells were scraped and transferred to a microcentrifuge tube, vortexed briefly, and incubated on ice for 5 min, followed by a centrifugation at 16,000×g at 4° C. for 15 min. The supernatant was collected. A sample of the lysate was used to ensure equal protein concentration in the samples. Next, 700 μl lysate, 20 μl glutathione-sepharose beads, and 20 μg GST-human Pak1-PBD were mixed together, and the reaction mixture was incubated at 4° C. for 1 hr with gentle rocking. The beads were then washed three times with lysis buffer, and proteins were eluted by boiling beads in 50 μl of the 2×SDS sample buffer at 95-100° C. for 5 min. […]

SUM159 cells [2] = assay: cell polarization in wounded SUM159 monolayers; format: cell-based, human; conditions: 100 μM, 2 hr
Method: In order to measure cell polarization, wounds were generated in SUM159 cell monolayers, followed by serum starvation and treatment with 100 μM PIT-1, PIT-2, PIT-1i-1, or PIT-1i-2 for 2 hr. Cells were stimulated for 15 min with 100 ng/ml PDGF, fixed and stained with TRITC-phalloidin for F-actin (red), acetylated tubulin antibody (green) for microtubule organization center (MTOC), and Hoechst for nuclei (blue). Cell polarization was evaluated by analysis of the relative location of the MTOC and nucleus. […] The number of polarized cells was counted in five random fields under fluorescent microscope.

SUM159 cells [3] = assay: actin polymerization and ruffling/lamellipodia formation in SUM159 cells; format: cell-based, human; conditions: 25, 50, 100 μM PITs or 100 μM PIT-1is, 8 hr; PDGF 15 min
Method: In one set of experiments, the ability of PITs to inhibit actin polymerization and ruffling/lamellipodia formation was examined in SUM159 cells. Cells were serum starved and treated with PITs (25, 50 100 μM) or PIT-1is (100 μM) for 8 hr, followed by PDGF (100 ng/ml) stimulation for 15 min. Cells were fixed and stained with TRITC-phalloidin to visualize actin fibers, followed by fluorescent microscopy analysis. The number of cells with ruffles/lamellipodia was counted in five random fields.

cells = assay: cell death under glucose/glutamine deprivation; format: cell-based
Description: Elstrom R L et al. (2004) Cancer Res 64:3892-9.

HUVEC = HUVEC migration, wound healing and transwell assays; format: cell-based, human
Method: (§1) Two models of cell migration were used, a transwell migration model and a wound closure model. Migration of cancer and endothelial cells was evaluated using 24-transwell Boyden chamber (Costar, Bedford, Mass.) with a polystyrene membrane (6.5 mm diameter, 10 μm thickness, and 8 μm pore size). Cells were suspended in serum-free media and seeded in the upper compartment of each well (2×10^4 cells/well) in the presence or absence of different compounds at the indicated concentrations. The lower compartment contained 600 μl of serum-free culture media supplemented with growth factors. After an 8-hr incubation at 37° C., cells were fixed and stained with 0.1% crystal violet. Non-migrating cells on the upper surface of the filter were removed, and the stained cells that migrated to the lower side were photographed using a phase-contrast microscope (Nikon, Japan) in five random fields. The cells were lysed with 10% acetic acid, and colorimetric determination was made at 595 nm using Wallac Victor 3 plate reader.
Cancer or endothelial cells were seeded into fibronectin-coated 96-well plates (2×10^4 cells/well). […]
Second, HUVEC were serum starved and treated with PITs (25, 50 100 μM) or PIT-1is (100 μM) for 8 hr, followed by bFGF (10 ng/ml) stimulation for 15 min. […] The number of cell ruffles/lamellipodia was counted in five random fields.

[4] = solubility / precipitation; format: physicochemical
Description: This method has been reported to be efficient for in vivo targeting of cancer cells by other poorly soluble anti-cancer drugs, such as m-porphyrin, tamoxifen, and taxol. Gao Z et al. (2003) J Drug Target 11:87-92; Torchilin V P et al. (2003) Proc Natl Acad Sci USA 100:6039-44.
The size of the DM-PIT-1-loaded micelles was about 15 nm with a narrow size distribution.

[5] = tested on: Bax/Bak double knockout mouse embryonic fibroblasts; assay: cell killing in Bax/Bak double knockout vs wild-type cells; format: cell-based
Method: Bax/Bak double knockout mouse embryonic fibroblasts (Wei M C et al. (2001) Science 292:727-30) and matched wild-type cells were a generous gift of Dr. Stanley Korsmeyer (Dana-Farber Cancer Center). B16-F10, U87MG, 4T1, A549, MDA-MB-231 and fibroblast cells were cultured in DMEM medium with 10% fetal bovine serum (FBS). SUM159 was maintained in Ham's F-12 medium with 5% FBS, 5 μg/ml insulin, and 1 μg/ml hydrocortisone. HUVEC cells were cultured in M199 medium with 20% FBS, 20 μg/ml ECGS, and 50 μg/ml heparin. All media were supplemented with 100 units/ml penicillin, 100 μg/ml streptomycin, and 2 mM glutamine. All cells were cultured in a humidified atmosphere of 95% air and 5% CO2 at 37° C.

PI3K-PDK1-Akt pathway = PI3K-PDK1-Akt pathway phosphorylation events in U87MG cells; format: cell-based, human
Method: The effect of PIT-1 on PIP3-mediated signaling was examined in U87MG glioblastoma cells, which show elevated basal levels of PIP3 due to the loss of PTEN. Pore N et al. (2003) Cancer Res 63:236-41.

human cancer cells = assay: transwell (Boyden chamber) migration of cancer cells; format: cell-based; conditions: for inhibition of cancer cell migration: transwell / wound healing models
Method: as §1

Row | Compound | inhibition of cell migration in VAV- and WAVE-overexpressing cells compared to control cells [1] | activation of Rac1 caused by growth factor stimulation (Rac1) | cell polarization and lamellipodia formation induced by PDGF, wound healing model (SUM159 cells [2]) | PDGF-induced membrane ruffling in SUM159 cells (SUM159 cells [3]) | cell death in combination with glucose/glutamine deprivation (cells) | migration of HUVEC cells (HUVEC) | aqueous solubility [4] | killing of Bax/Bak double knockout cells compared with wild-type cells [5] | activity of the PI3K-PDK1-Akt pathway in U87MG cells (PI3K-PDK1-Akt pathway) | growth factor-induced transwell migration of human cancer cells (human cancer cells; 8 hr) | inhibition of cancer cell migration (human cancer cells)
1 | O=C(NC(=S)Nc1cc([N+](=O)[O-])cc(Cl)c1O)c1ccccc1 [PIT-1] | larger degree of inhibition | efficiently suppressed | effective at preventing cell polarization | efficiently inhibited | dramatic induction of cell death | efficiently blocked migration | limited aqueous solubility | reduced in Bax/Bak double knockout cells | suppressed activity | substantially inhibited | much stronger than that of Akt kinase inhibitor VIII
2 | O=C1NC(=S)S/C1=C\c1cc(O)c([N+](=O)[O-])cc1Cc1ccccc1 [PIT-2] | larger degree of inhibition | efficiently suppressed | effective at preventing cell polarization | efficiently inhibited | dramatic induction of cell death | efficiently blocked migration | limited aqueous solubility | reduced in Bax/Bak double knockout cells | suppressed activity |  | efficiently inhibited cell migration
